# Measurements from the supplement of paper PMC10307832.
# Assays:
# Assay in all cases: relative viability (nuclei count vs DMSO), 5 days (fraction); higher = more cells survive
# [1] = compound: C1/C(=C\C2=CC=CS2)/C(=O)/C(=C/C3=CC=CS3)/C1 + O=C(CCCCCCC(=O)Nc1ccccc1)NO [Vorinostat] (partner 1 µM)
# Summary of the method: (§1)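 Each reported value is a median over duplicate plates. It expresses relative viability: treated-well nuclei count divided by vehicle-well nuclei count. Lung cancer cell lines in 1536-well plates were dosed by pin tool a day after seeding, alone with one drug or with a fixed anchor-drug dose plus five library-drug doses (not always all listed) in √10 steps, and nuclei were counted after 5 days.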
# TPCA-1 + Lapatinib = compound: C1=CC(=CC=C1C2=CC(=C(S2)NC(=O)N)C(=O)N)F [TPCA-1] + CS(=O)(=O)CCNCc1ccc(-c2ccc3ncnc(Nc4ccc(OCc5cccc(F)c5)c(Cl)c4)c3c2)o1 [Lapatinib] (partner 2 µM)
# Summary of the method: as §1
# Lestaurtinib + Foretinib = compound: C[C@]12O[C@H](C[C@]1(O)CO)n1c3ccccc3c3c4c(c5c6ccccc6n2c5c31)CNC4=O [Lestaurtinib] + COc1cc2c(Oc3ccc(NC(=O)C4(C(=O)Nc5ccc(F)cc5)CC4)cc3F)ccnc2cc1OCCCN1CCOCC1 [Foretinib] (partner 0.25 µM)
# Summary of the method: as §1
# [2] = compound: C1/C(=C\C2=CC=CS2)/C(=O)/C(=C/C3=CC=CS3)/C1 + N=C(N)NC(=N)NCCc1ccccc1 [Phenformin] (partner 250 µM)
# Summary of the method: as §1
cell line,measurement,setting,value
UMC-11,relative viability,[1]; first compound 0.2 µM,0.361
same,relative viability,[1]; first compound 0.6325 µM,0.36
same,relative viability,[1]; first compound 2 µM,0.43
same,relative viability,[1]; first compound 6.325 µM,0.26
same,relative viability,[1]; first compound 20 µM,0.394
same,relative viability,TPCA-1 + Lapatinib; first compound 0.04 µM,1.18
same,relative viability,TPCA-1 + Lapatinib; first compound 0.1265 µM,0.754
same,relative viability,TPCA-1 + Lapatinib; first compound 0.4 µM,0.69
same,relative viability,TPCA-1 + Lapatinib; first compound 1.265 µM,0.956
same,relative viability,TPCA-1 + Lapatinib; first compound 4 µM,0.178
same,relative viability,Lestaurtinib + Foretinib; first compound 0.005 µM,1.03
same,relative viability,Lestaurtinib + Foretinib; first compound 0.01581 µM,0.891
same,relative viability,Lestaurtinib + Foretinib; first compound 0.05 µM,0.46
same,relative viability,Lestaurtinib + Foretinib; first compound 0.1581 µM,0.273
same,relative viability,Lestaurtinib + Foretinib; first compound 0.5 µM,0.175
same,relative viability,[2]; first compound 0.2 µM,0.32
same,relative viability,[2]; first compound 0.6325 µM,0.365
same,relative viability,[2]; first compound 20 µM,0.324
